The source of these data is ChEMBL document CHEMBL1795331, “Synthesis and biological activity of optically active NCL-1, a lysine-specific demethylase 1 selective inhibitor” (Bioorg Med Chem, 2011).

Molecules are shown by their SMILES.

One data set is described as follows: in vitro. The settings on record: human, HEK293 cells.
For the next data set, the system named is SH-SY5Y. In words: cells. As to conditions: Homo sapiens, 48 h.
For another data set, the system named is HeLa. In words: cells. The settings on record: Homo sapiens, 48 h.

Description for HeLa: Growth inhibition of human HeLa cells after 48 hrs by MTT assay
Description for SH-SY5Y: Growth inhibition of human SH-SY5Y cells after 48 hrs by MTT assay
Description for in vitro: Growth inhibition of human HEK293 cells after 48 hrs by MTT assay

The compound `N[C@H]1C[C@@H]1c1cccc(OCC[C@H](NC(=O)c2ccccc2)C(=O)NCc2ccccc2)c1` registered a GI50 at 48 h in the data set “in vitro” of 17 µM. For the same compound, the GI50 with SH-SY5Y was 9 µM; in the data set on HeLa, 20 µM.

With `N[C@@H]1C[C@H]1c1cccc(OCC[C@H](NC(=O)c2ccccc2)C(=O)NCc2ccccc2)c1`, it took 25 µM to inhibit growth in the data set “in vitro” by half (GI50 at 48 h). Further, the 50% growth inhibitory concentration (GI50) in the data set on SH-SY5Y is 9 µM; in the data set on HeLa, 74 µM.

Usually GI50 stands for the concentration that inhibits growth by half.
